Results on 2 compounds are retold here after patent publication US20030144234A1, “Methods for the treatment of chronic pain and compositions therefor” (priority 2001, published 2003).

Starred links: 1 amine or outer side, 2 acyl side, 3 side chain; linkers in the order of their positions; H or OH if unused. Non-standard residues stand in square brackets, D forms with d. Residues, ends and D or L forms follow the SMILES beside them. *: point of attachment. hPhe = N[C@@H](CCc1ccccc1)C(=O)O; Morpholide = C1CN(*)CCO1; CO = O=C([*:1])[*:2]; CH2F = FC*

In test [1] the target is T1, cathepsin S (Homo sapiens, UniProt P25774). The experiment in a line: Cathepsin S inhibitory activity (stated in words). The test is classed as biochemical.
The target in a further test is T2, cathepsin K (Homo sapiens, UniProt P43235).
T2 sequence (P43235 115-329): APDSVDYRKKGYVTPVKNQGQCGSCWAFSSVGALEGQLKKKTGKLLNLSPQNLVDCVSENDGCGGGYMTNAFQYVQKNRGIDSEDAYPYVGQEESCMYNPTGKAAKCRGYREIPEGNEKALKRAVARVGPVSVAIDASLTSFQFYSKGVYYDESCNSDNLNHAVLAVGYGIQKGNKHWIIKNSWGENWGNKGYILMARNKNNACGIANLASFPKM
Put plainly: Cathepsin K inhibitory activity (stated in words). Type of test: biochemical.

The test system of test [2] is Seltzer model of chronic neuropathic pain. Put plainly: Established mechanical hyperalgesia in the Seltzer model of chronic neuropathic pain, single oral dose. Type of test: in vivo, Wistar rats. On the set-up: effect on established mechanical hyperalgesia: unit not given here.
The target of test [3] is T1, cathepsin S. The note with it: per U.S. Pat. No. 4,518,528; cited from earlier work.
Test [4] relates to CCI model of chronic neuropathic pain. Put plainly: Mechanical hyperalgesia in the CCI model, twice daily oral dosing throughout development of hyperalgesia. The test is classed as in vivo, Wistar rats. An excerpt: In the Chronic Constriction Injury (CCl) model (Bennett, G. J. and Xie, Y. K. Pain (1988) 33: 87-107) rats are anaesthetised and a small incision is made mid-way up one thigh (usually the left) to expose the sciatic nerve. The nerve is cleared of surrounding connective tissue and four ligatures of 4/0 chromic gut are tied loosely around the nerve with approximately 1 mm between each, so that the ligatures just barely constrict the surface of the nerve. The wound is closed with sutures and clips as described above. In sham animals the sciatic nerve is exposed but not ligated and the wound closed as in nonsham animals. In all chronic pain models (inflammatory and neuropathic) mechanical hyperalgesia is assessed by measuring paw withdrawal thresholds of both hindpaws to an increasing pressure stimulus using an Analgesymeter (Ugo-Basile, Milan). Mechanical allodynia is assessed by measuring withdrawal thresholds to non-noxious mechanical stimuli applied with von Frey hairs to the plantar surface of both hindpaws. Thermal hyperalgesia is assessed by measuring withdrawal latencies to a noxious thermal stimulus applied to the underside of each hindpaw. With all models, mechanical hyperalgesia and allodynia and thermal hyperalgesia develop within 1-3 days following surgery and persist for at least 50 days. For the assays described herein, drugs may be applied before and after surgery to assess their effect on the development of hyperalgesia, particularly approximately 14 days following surgery, to determine their ability to reverse established hyperalgesia. In the experiments disclosed herein, Wistar rats (male) are employed in the pain models described above. Rats weigh approximately 120-140 grams at the time of surgery. All surgery is performed under enflurane/O2 inhalation anaesthesia. In all cases the wound is closed after the procedure and the animal allowed to recover. In all pain models employed, after a few days in all but the sham operated animals, a marked mechanical and thermal hyperalgesia and allodynia develops in which there is a lowering of pain threshold and an enhanced reflex withdrawal response of the hind-paw to touch, pressure or thermal stimuli. […] In the majority of animals the toes of the affected hind paw are held together and the foot turned slightly to one side; in some rats the toes are also curled under. The gait of the ligated rats varies, but limping is uncommon. […] The rats tend to be very sensitive to touch and may vocalise. Otherwise the general health an condition of the rats is good. Data disclosed herein indicate that compound B can reverse the mechanical hyperalgesia induced in the CCl model of neuropathic pain in a dose dependent manner with a D50 in the range 30-100 mg/kg, with up to 70% reversal at 100 mg/kg at 1 hour post dosing. […] In the twice daily study, paw withdrawal thresholds were measured prior to surgery and then daily 3 hours following the second oral dosing with compound B. The last dose was given on day 13. Each time point in Table 3 represents data from 6 animals per group. Vehicle control: PEG/methyl cellulose (0.5%)+Tween 80 (0.25%)(20:80), 1 ml p.o.

Test [5] deals with FCA-induced model of chronic inflammatory pain. Put plainly: Mechanical hyperalgesia in the FCA-induced model of chronic inflammatory pain. The test is classed as in vivo, rats. As to conditions: 100 mg/kg p.o., 24 hours after FCA induction, data not shown. The procedure:
The Complete Freund's Adjuvant-induced mechanical hyperalgesia may be used as a model of chronic inflammatory pain (Stein, C. et al. Pharmacol. Biochem. Behav. (1988) 31:445-451). In this model, typically a male Sprague-Dawley orWistar rat (200-250 g) receives an intraplantar injection of 25 μl complete Freund's adjuvant into one hind paw. A marked inflammation occurs in this hind paw. Drugs are generally administered for evaluation of efficacy, 24 hours after the inflammatory insult, when mechanical hyperalgesia is considered fully established. In all chronic pain models (inflammatory and neuropathic) mechanical hyperalgesia is assessed by measuring paw withdrawal thresholds of both hindpaws to an increasing pressure stimulus using an Analgesymeter (Ugo-Basile, Milan). Mechanical allodynia is assessed by measuring withdrawal thresholds to non-noxious mechanical stimuli applied with von Frey hairs to the plantar surface of both hindpaws. Thermal hyperalgesia is assessed by measuring withdrawal latencies to a noxious thermal stimulus applied to the underside of each hindpaw. With all models, mechanical hyperalgesia and allodynia and thermal hyperalgesia develop within 1-3 days following surgery and persist for at least 50 days. […] The percentage reversal of hyperalgesia is calculated as follows: [formula] […]

Test [6] has as its system CCI model of chronic neuropathic pain. The experiment in a line: Established mechanical hyperalgesia in the CCI model of chronic neuropathic pain, single oral dose (paw withdrawal threshold). Type of test: in vivo, Wistar rats. The note with it: for % Reversal of Predose Hyperalgesia: CCI model day 14. An excerpt:
In the Chronic Constriction Injury (CCl) model (Bennett, G. J. and Xie, Y. K. Pain (1988) 33: 87-107) rats are anaesthetised and a small incision is made mid-way up one thigh (usually the left) to expose the sciatic nerve. The nerve is cleared of surrounding connective tissue and four ligatures of 4/0 chromic gut are tied loosely around the nerve with approximately 1 mm between each, so that the ligatures just barely constrict the surface of the nerve. The wound is closed with sutures and clips as described above. In sham animals the sciatic nerve is exposed but not ligated and the wound closed as in nonsham animals. In all chronic pain models (inflammatory and neuropathic) mechanical hyperalgesia is assessed by measuring paw withdrawal thresholds of both hindpaws to an increasing pressure stimulus using an Analgesymeter (Ugo-Basile, Milan). Mechanical allodynia is assessed by measuring withdrawal thresholds to non-noxious mechanical stimuli applied with von Frey hairs to the plantar surface of both hindpaws. Thermal hyperalgesia is assessed by measuring withdrawal latencies to a noxious thermal stimulus applied to the underside of each hindpaw. With all models, mechanical hyperalgesia and allodynia and thermal hyperalgesia develop within 1-3 days following surgery and persist for at least 50 days. For the assays described herein, drugs may be applied before and after surgery to assess their effect on the development of hyperalgesia, particularly approximately 14 days following surgery, to determine their ability to reverse established hyperalgesia. The percentage reversal of hyperalgesia is calculated as follows: [formula] In the experiments disclosed herein, Wistar rats (male) are employed in the pain models described above. Rats weigh approximately 120-140 grams at the time of surgery. All surgery is performed under enflurane/O2 inhalation anaesthesia. In all cases the wound is closed after the procedure and the animal allowed to recover. In all pain models employed, after a few days in all but the sham operated animals, a marked mechanical and thermal hyperalgesia and allodynia develops in which there is a lowering of pain threshold and an enhanced reflex withdrawal response of the hind-paw to touch, pressure or thermal stimuli. […] In the majority of animals the toes of the affected hind paw are held together and the foot turned slightly to one side; in some rats the toes are also curled under. The gait of the ligated rats varies, but limping is uncommon. […] The rats tend to be very sensitive to touch and may vocalise. Otherwise the general health an condition of the rats is good. Rats are subjected to the surgical procedures according to the CCl chronic pain model described above. Paw withdrawal thresholds are measured prior to surgery, 14 days later when hyperalgesia is established and then at 1, 3 and 6 hours following a single oral gavage dose of compound B. Results are provided in Table 2, below. Each time point represents data from 6 animals per group. Vehicle control: PEG/methyl cellulose (0.5%)+Tween 80 (0.25%)(20:80), 1 ml p.o.

T1 sequence (P25774 115-331): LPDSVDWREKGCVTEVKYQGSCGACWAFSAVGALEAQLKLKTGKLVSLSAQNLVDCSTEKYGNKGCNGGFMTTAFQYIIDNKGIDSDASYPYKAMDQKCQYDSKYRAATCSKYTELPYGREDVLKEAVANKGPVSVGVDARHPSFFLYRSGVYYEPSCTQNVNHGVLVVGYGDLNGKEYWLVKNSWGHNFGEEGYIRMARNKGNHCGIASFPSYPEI

Take `CC(C)(C)Cn1c(Cc2cccs2)cc2cnc(C#N)nc21` [Compound A, 7-(2,2-Dimethyl-propyl)-6-thiophen-2-ylmethyl-7.H.-pyrrolo[2,3-.d.]pyrimidine-2-carbonitrile]: the “cathepsin S inhibitory activity (in words)” value on cathepsin S [1] is reported as “mixed cathepsin S/K inhibitory activity”. Also, the “cathepsin K inhibitory activity (in words)” value on cathepsin K is “mixed cathepsin S/K inhibitory activity”. The “effect on established mechanical hyperalgesia” value (from here on “effect”) is given as 1.32 in test [2] (Cmpd A 3 mg/kg single oral dose, 1 hr); 3.64 in test [2] (Cmpd A 3 mg/kg single oral dose, 3 hrs); −1.06 in test [2] (Cmpd A 3 mg/kg single oral dose, 6 hrs); 8.63 in test [2] (Cmpd A 10 mg/kg single oral dose, 1 hr); 52.94 in test [2] (Cmpd A 10 mg/kg single oral dose, 3 hrs); 17.63 in test [2] (Cmpd A 10 mg/kg single oral dose, 6 hrs). Further, the “effect” value in test [2] (Cmpd A 30 mg/kg single oral dose, 1 hr) worked out at 31.15; in test [2] (Cmpd A 30 mg/kg single oral dose, 3 hrs), 68.32; in test [2] (Cmpd A 30 mg/kg single oral dose, 6 hrs), 23.05. The “D50 for reversal of hyperalgesia” value in test [2] (Seltzer model, single oral dose) was in the range of 3 to 10 mg/kg.
With `O=C(CF)[C@H](CCc1ccccc1)NC(=O)[C@H](Cc1ccccc1)NC(=O)N1CCOCC1` [Compound B, 3-[(4-morpholinylcarbonyl)-phenylalanylamido]-1-fluoro-5-phenyl-2-pentanone] ({Morpholide-CO}-Phe-[hPhe]-CH2F), the “inhibition of cathepsin S in vitro (in words)” value on cathepsin S [3] was “known to inhibit”. Further, the “effect” value in test [2] (Cmpd B 30 mg/kg single oral dose, 1 hr) was 33.47; in test [2] (Cmpd B 30 mg/kg single oral dose, 3 hrs), 41.57; in test [2] (Cmpd B 30 mg/kg single oral dose, 6 hrs), 11.97. Moreover, the “Mean Paw pressure withdrawal threshold” value in test [4] (30 mg/kg orally twice daily, day 1 post surgery, 3 hours after second dose) was 100.00 g; in test [4] (30 mg/kg orally twice daily, day 2 post surgery, 3 hours after second dose) it was 70.83 g; in test [4] (30 mg/kg orally twice daily, day 3 post surgery, 3 hours after second dose) it was 79.17 g; in test [4] (30 mg/kg orally twice daily, day 4 post surgery, 3 hours after second dose) it was 80.00 g; in test [4] (30 mg/kg orally twice daily, day 6 post surgery, 3 hours after second dose) it was 80.80 g; in test [4] (30 mg/kg orally twice daily, day 8 post surgery, 3 hours after second dose), 80.00 g. In addition, the “Mean Paw pressure withdrawal threshold” value in test [4] (30 mg/kg orally twice daily, day 10 post surgery, 3 hours after second dose) is recorded as 77.50 g; in test [4] (30 mg/kg orally twice daily, day 13 post surgery (last dose), 3 hours after second dose), 79.17 g; in test [4] (day 15 post surgery, after end of 30 mg/kg twice daily treatment (last dose day 13)), 60.83 g. Besides, the “reversing mechanical hyperalgesia (in words)” value in test [4] (CCI model, 30 mg/kg orally, twice daily throughout development of hyperalgesia) is “acutely effective”. Besides, the “maximal reversal of mechanical hyperalgesia” value in test [5] was 46%. For the same compound, the “% Reversal of Predose Hyperalgesia” value in test [6] (10 mg/kg single oral dose, 1 hr post dose) is on record as 26.16%; in test [6] (10 mg/kg single oral dose, 3 hrs post dose), 38.19%; in test [6] (10 mg/kg single oral dose, 6 hrs post dose) it was 18.29%; in test [6] (30 mg/kg single oral dose, 1 hr post dose) it was 40.97%; in test [6] (30 mg/kg single oral dose, 3 hrs post dose) it was 38.89%; in test [6] (30 mg/kg single oral dose, 6 hrs post dose), 13.89%. Further, the “% Reversal of Predose Hyperalgesia” value in test [6] (100 mg/kg single oral dose, 1 hr post dose) is recorded as 76.49%; in test [6] (100 mg/kg single oral dose, 3 hrs post dose), 55.06%; in test [6] (100 mg/kg single oral dose, 6 hrs post dose), 29.76%. Moreover, the “reversal of mechanical hyperalgesia” value in test [6] (CCI model, 100 mg/kg, 1 hour post dosing) was “up to 70%”. Moreover, in test [6] (CCI model, single oral dose), the “D50 for reversal of mechanical hyperalgesia” value lay in the range of 30 to 100 mg/kg.
